Source: ChEMBL document CHEMBL1201862, “PubChem BioAssay data set” (2004)
The source made the active and inactive calls.

Key:
[1] = target: Estrogen receptor beta (Homo sapiens, UniProt Q92731);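 also: recombinant ER-beta bound to coactivator SRC1 peptide in presence of estradiol agonist; inhibitors block coactivator peptide binding and lower the FRET signal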
[2] = target: Mu-type opioid receptor (Homo sapiens, UniProt P35372); format: functional, cell-based;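 also: U2OS cells with beta-arrestin recruitment to OPRM1 by beta-gal complementation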
Mu-type opioid receptor, sequence (P35372 whole entry): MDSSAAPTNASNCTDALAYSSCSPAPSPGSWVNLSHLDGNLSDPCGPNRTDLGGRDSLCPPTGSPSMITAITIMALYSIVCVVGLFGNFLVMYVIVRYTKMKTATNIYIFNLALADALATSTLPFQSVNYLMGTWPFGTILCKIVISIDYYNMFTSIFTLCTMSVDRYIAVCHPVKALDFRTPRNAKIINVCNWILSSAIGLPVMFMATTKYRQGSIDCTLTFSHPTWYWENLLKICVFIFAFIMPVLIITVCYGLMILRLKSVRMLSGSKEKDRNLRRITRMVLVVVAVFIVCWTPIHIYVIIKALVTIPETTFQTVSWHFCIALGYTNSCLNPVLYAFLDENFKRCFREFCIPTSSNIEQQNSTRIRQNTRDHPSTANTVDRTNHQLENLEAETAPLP

[3] = target: 5-hydroxytryptamine receptor 2A (Mus musculus, UniProt P35363); format: functional, cell-based;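 also: CHO-K1 cells with tagged receptor and beta-arrestin; agonist potency measured as compound-induced activation of the receptor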
5-hydroxytryptamine receptor 2A, sequence (P35363 whole entry): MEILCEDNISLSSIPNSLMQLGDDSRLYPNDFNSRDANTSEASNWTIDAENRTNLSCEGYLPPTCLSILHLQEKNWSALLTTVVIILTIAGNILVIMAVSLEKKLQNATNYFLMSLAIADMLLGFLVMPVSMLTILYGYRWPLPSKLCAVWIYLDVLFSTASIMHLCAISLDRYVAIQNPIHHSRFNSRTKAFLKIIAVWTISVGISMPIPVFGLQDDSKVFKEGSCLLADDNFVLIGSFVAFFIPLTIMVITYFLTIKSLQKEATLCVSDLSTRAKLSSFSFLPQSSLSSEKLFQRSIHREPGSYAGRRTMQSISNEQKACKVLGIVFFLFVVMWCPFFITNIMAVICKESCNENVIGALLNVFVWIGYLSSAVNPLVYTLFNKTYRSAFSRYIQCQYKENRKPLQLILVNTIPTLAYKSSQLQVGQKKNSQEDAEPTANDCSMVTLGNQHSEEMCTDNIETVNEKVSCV

[4] = target: Protein Wnt-3a (Mus musculus, UniProt P27467); assay: antagonism of Wnt3a pathway luciferase reporter – Wnt-LIGHT cells, luminescence, selectivity assay for Gli-SUFU antagonist project, dose response (AID 651570); format: functional; conditions: read-out: IC50_Mean;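 also: Wnt-LIGHT reporter cells stimulated with conditioned medium from Wnt3a-producing cells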
Protein Wnt-3a, sequence (P27467 whole entry): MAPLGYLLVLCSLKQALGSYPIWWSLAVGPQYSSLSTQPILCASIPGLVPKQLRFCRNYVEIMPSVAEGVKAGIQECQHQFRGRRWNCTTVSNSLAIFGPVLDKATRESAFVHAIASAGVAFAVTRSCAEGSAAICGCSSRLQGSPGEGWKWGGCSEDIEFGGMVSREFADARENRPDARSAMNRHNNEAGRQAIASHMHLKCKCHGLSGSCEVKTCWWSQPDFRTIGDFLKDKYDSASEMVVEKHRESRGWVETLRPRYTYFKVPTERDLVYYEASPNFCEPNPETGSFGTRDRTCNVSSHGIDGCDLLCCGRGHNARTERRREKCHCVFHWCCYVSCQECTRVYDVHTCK

[5] = target: T1, Caspase-3 (Homo sapiens, UniProt P42574); format: functional;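 also: Dose-response selectivity test against caspase-3 for candidate inhibitors of sentrin-specific proteases (SENPs)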
T1 sequence (P42574 whole entry): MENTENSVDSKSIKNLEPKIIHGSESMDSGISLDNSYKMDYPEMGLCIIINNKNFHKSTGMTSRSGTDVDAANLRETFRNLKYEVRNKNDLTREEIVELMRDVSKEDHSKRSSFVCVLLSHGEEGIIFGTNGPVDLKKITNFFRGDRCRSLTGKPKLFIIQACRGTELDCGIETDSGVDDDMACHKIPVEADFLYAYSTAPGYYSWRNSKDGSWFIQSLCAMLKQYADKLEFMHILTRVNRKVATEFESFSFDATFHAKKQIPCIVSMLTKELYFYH

[6] = target: T2, Coagulation factor XII (Homo sapiens, UniProt P00748); format: functional;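 also: activated factor XIIa alpha cleaving a fluorogenic AMC peptide substrate; inhibitor potency from loss of enzyme activity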
T2 sequence (P00748 whole entry): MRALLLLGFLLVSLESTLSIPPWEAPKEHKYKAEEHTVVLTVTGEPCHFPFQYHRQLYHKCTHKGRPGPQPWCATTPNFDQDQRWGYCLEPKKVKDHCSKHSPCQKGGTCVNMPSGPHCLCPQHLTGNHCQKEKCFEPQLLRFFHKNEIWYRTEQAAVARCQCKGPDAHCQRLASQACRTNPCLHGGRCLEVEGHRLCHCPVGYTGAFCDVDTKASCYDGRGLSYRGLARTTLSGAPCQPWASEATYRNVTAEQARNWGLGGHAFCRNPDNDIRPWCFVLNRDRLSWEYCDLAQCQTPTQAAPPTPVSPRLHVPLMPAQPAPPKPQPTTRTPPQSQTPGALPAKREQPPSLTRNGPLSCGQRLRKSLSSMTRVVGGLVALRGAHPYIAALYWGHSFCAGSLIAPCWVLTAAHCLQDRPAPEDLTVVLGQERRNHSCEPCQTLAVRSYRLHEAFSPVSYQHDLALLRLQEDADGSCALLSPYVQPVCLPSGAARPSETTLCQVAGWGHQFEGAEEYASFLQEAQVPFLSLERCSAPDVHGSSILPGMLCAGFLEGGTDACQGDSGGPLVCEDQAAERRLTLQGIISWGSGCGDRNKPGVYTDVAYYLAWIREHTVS

[7] = target: T3, Sentrin-specific protease 7 (Homo sapiens, UniProt Q9BQF6); format: functional;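 also: Luminescence-based dose-response confirmation of ultra-high-throughput screening hits, measuring inhibition of SENP7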
T3 sequence (Q9BQF6 whole entry): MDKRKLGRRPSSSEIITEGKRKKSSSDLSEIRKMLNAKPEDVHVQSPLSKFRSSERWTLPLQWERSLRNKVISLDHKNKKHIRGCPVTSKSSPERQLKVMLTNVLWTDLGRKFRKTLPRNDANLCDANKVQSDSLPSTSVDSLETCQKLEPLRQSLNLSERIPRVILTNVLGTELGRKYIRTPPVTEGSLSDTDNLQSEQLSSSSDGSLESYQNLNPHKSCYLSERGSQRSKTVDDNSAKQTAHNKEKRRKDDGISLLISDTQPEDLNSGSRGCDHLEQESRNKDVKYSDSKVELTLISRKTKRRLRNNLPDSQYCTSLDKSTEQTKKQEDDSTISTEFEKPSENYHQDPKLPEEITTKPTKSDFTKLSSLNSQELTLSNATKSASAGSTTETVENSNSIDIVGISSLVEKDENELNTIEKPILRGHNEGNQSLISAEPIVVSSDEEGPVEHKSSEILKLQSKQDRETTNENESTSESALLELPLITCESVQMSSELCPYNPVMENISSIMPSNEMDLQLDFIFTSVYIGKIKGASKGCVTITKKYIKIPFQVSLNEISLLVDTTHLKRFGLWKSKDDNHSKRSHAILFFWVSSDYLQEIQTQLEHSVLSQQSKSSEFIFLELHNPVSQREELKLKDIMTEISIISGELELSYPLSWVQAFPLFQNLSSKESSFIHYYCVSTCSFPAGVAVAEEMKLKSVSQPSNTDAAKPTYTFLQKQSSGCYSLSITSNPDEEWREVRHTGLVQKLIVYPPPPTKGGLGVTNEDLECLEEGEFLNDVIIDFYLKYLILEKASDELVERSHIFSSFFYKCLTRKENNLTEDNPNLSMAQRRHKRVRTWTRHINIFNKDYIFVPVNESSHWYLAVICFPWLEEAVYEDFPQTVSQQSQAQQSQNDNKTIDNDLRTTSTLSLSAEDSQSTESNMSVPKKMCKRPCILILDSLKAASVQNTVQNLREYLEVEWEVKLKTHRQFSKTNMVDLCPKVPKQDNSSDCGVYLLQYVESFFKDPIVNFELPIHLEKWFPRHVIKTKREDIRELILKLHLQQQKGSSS

[8] = target: T4, Sentrin-specific protease 6 (Homo sapiens, UniProt Q9GZR1); format: functional;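 also: Luminescence-based dose-response confirmatory assay of SENP6 inhibition, following up an ultra-high-throughput screen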
T4 sequence (Q9GZR1 whole entry): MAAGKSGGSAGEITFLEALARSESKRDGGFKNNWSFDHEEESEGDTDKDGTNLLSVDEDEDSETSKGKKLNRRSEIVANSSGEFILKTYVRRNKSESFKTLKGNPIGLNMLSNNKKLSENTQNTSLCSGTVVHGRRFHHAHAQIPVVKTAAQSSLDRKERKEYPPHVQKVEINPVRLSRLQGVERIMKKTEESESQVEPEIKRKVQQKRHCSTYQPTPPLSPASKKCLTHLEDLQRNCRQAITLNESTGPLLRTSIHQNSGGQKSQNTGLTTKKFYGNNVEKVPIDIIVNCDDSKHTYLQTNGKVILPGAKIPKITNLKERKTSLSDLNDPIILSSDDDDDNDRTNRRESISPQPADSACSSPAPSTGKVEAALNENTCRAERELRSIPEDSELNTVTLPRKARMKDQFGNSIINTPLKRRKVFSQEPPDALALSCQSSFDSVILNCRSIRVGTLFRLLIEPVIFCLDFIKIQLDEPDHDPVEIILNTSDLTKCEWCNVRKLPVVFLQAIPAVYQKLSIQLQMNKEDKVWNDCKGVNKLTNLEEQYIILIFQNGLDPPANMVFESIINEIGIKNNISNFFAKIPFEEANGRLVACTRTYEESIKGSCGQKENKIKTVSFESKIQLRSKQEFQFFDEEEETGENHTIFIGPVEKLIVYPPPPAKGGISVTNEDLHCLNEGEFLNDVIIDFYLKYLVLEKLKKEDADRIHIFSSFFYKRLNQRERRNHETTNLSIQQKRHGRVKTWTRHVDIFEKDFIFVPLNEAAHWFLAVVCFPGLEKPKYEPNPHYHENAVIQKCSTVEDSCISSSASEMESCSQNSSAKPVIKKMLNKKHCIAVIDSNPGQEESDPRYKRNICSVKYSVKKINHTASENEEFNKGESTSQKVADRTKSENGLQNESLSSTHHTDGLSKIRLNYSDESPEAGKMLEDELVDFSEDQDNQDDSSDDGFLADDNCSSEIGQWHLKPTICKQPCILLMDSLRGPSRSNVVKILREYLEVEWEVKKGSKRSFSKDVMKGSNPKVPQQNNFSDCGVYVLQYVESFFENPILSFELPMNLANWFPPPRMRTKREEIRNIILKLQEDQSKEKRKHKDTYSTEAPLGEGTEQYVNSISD

[9] = target: T5, Sentrin-specific protease 8 (Homo sapiens, UniProt Q96LD8); format: functional;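 also: luminescence read-out of SENP8 inhibition, dose-response confirmation following an ultra-high-throughput screen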
T5 sequence (Q96LD8 whole entry): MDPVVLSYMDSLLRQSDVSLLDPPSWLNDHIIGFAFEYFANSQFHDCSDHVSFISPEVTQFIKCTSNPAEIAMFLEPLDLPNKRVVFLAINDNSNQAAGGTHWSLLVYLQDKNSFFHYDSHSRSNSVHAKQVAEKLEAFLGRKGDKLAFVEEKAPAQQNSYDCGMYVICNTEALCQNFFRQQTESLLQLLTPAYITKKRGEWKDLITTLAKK

[10] = viability loss in THP-1 monocytes – THP-1 cells, cytotoxicity control for Vif-APOBEC3G degradation inhibitor project, dose response (AID 1117359); format: functional; conditions: THP-1
[11] = A549 cell cytotoxicity, dose response, cytotoxicity control, plate reader, cherry-pick, antagonist series (AID 743412); format: functional, cell-based
[12] = blockers of bursicon-stimulated LGR2 cAMP reporter – cell-based, HEK293, CRE-luciferase reporter, cherry pick, set 2, dose response (AID 743343); format: functional;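 also: transfected cells were stimulated with diluted bursicon conditioned medium after compound addition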
[13] = blockade of melanocortin 4 receptor signaling – cell-based, plate reader, cherry pick, counter-screen for LGR2 antagonist project, dose response (AID 743444); format: functional;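 also: transfected HEK 293 cells stimulated with alpha-MSH peptide; potency of inhibitors of the alpha-MSH evoked signal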
[14] = target: T6, Aminopeptidase N (Plasmodium falciparum FcB1/Columbia, UniProt O96935); assay: malaria alanyl aminopeptidase activity blockers – biochemical, fluorogenic H-Leu-NHMec substrate, 1536-well (AID 1445); parameters: species or system Plasmodium falciparum 3D7, 3D7
T6 sequence (O96935 whole entry): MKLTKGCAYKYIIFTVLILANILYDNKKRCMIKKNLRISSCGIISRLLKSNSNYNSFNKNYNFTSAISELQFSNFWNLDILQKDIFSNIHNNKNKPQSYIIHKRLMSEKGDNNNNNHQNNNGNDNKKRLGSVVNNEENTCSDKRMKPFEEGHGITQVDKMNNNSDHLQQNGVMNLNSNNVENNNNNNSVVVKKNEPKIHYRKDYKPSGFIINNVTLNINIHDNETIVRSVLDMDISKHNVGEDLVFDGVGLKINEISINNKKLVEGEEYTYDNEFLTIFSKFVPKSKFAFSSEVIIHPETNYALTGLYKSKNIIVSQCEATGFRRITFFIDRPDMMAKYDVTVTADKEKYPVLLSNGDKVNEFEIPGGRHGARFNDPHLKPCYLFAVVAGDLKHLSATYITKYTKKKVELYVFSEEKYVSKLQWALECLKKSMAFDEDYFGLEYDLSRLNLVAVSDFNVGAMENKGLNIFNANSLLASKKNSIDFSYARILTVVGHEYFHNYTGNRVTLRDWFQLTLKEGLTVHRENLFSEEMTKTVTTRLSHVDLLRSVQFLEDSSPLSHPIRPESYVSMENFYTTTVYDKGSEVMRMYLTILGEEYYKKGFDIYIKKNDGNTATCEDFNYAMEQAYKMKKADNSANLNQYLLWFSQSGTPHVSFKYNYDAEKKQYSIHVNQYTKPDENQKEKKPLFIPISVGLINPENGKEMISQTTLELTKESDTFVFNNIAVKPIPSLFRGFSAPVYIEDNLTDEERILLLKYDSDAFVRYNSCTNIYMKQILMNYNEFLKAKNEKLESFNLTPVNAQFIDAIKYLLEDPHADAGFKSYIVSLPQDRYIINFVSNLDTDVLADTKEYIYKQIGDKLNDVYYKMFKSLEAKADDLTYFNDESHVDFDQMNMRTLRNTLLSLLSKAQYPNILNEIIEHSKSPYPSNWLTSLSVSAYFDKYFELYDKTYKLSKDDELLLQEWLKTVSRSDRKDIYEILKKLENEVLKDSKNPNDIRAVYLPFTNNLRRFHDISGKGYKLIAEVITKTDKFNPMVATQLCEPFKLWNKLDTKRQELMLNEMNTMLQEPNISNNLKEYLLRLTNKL

Estrogen receptor beta, sequence (Q92731 whole entry): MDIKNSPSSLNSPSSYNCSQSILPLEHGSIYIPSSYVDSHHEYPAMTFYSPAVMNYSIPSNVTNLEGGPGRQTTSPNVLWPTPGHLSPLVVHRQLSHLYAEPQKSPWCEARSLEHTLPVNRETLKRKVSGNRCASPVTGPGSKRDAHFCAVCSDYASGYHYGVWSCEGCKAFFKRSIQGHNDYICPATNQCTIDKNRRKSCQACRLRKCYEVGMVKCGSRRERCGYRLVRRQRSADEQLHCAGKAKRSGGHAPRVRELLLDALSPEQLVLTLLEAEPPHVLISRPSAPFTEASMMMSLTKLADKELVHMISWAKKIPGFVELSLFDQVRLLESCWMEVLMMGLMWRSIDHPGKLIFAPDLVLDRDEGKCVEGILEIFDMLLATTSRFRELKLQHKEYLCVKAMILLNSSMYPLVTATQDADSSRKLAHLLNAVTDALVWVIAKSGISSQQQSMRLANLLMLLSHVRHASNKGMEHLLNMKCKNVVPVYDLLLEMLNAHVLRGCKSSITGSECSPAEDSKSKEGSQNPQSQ

## Cc1cccc(-n2c(SCc3cc(=O)n4c(C)cccc4n3)nc3nncc-3c2O)c1
[1]
  IC50: > 50 µM (not active)

## O=[N+]([O-])c1cccnc1N1CCN(Cc2ccc3c(c2)OCO3)CC1
[2]
  EC50: 92.5 µM (inactive)
[3]
  EC50: 0.00977 µM (active)

## CC(C)(C)c1ccc(-n2ncc3c2CCCC3NC(=O)CCN2CCCC2=O)cc1 (configuration not stated)
[4]
  IC50: 0.973 µM (active)

## CCOC(=O)N1CCN(Cc2ccc3c(c2)OCO3)CC1
[2]
  EC50: 92.4 µM (inactive)
[3]
  EC50: 1.19 µM (active)

## Cc1ccc(C)c(-c2nc3cc(N)ccc3o2)c1
[5]
  IC50: 27.5 µM (active)
[6]
  IC50: > 50 µM (inactive)
[7]
  IC50: 9.65 µM (active)
[8]
  IC50: 25.2 µM (active)
[9]
  IC50: 31.1 µM (active)

## CCOC(=O)Cc1nn(C)c(=O)c2ccccc12
[1]
  IC50: > 50 µM (not active)

## Cc1ccc(CN2CCN(c3ncccn3)CC2)o1
[2]
  EC50: 92.4 µM (inactive)
[3]
  EC50: 4 µM (active)

## O=C(CCc1ccccc1)Nc1ccc(N2CCOCC2)cc1
[1]
  IC50: > 50 µM (not active)

## CC(C)(C)c1ccc(NC(=O)N2CCN(c3ccc([N+](=O)[O-])cn3)CC2)cc1
[10]
  CC50: 37.5 µM (active)

## c1ccc(-c2cn3c([n+]2-c2ccccc2)CCC3)cc1
[4]
  IC50: 5.16 µM (active)

## CC(C)n1c(-c2ccco2)cs/c1=N/c1cccnc1
[4]
  IC50: 10.5 µM (active)

## CC(=O)N1CCCCN2[C@H](CO)[C@H](c3ccc(-c4cccc(C)c4)cc3)[C@@H]2C1
[11]
  AC50: > 52 µM (inactive)
[12]
  AC50: 19.2 µM (active)
[13]
  AC50: 9.64 µM (active)

## O=C(O)COc1ccccc1/C=N/NC(=O)CSc1nnc(SCc2ccc(Cl)cc2)s1
[14]
  IC50: 16.6 µM (active)
[5]
  IC50: 41.1 µM (active)
[7]
  IC50: 15.8 µM (active)
[8]
  IC50: 22.5 µM (active)
[9]
  IC50: > 100 µM (inactive)

## COc1ccc2c(c1)c(C)cc[n+]2Cc1ccccc1
[4]
  IC50: 2.07 µM (active)
